Source: US20240109903A1, “SUBSTITUTED HETEROCYCLES FOR TREATING CANCER” (Northwestern University, priority 2022, published 2024)

Key:
[1] = tested on: HS 578T; test: NCI 60 five-dose screen HS 578T; assay type: cell-based; settings: Homo sapiens, five-dose
[2] = tested on: MOLT-4; test: NCI 60 five-dose screen MOLT-4; assay type: cell-based; settings: Homo sapiens, five-dose
[3] = tested on: CAKI-1; test: NCI 60 five-dose screen CAKI-1; assay type: cell-based; settings: Homo sapiens, five-dose
[4] = tested on: 786-0; test: NCI 60 five-dose screen 786-0; assay type: cell-based; settings: Homo sapiens, five-dose
[5] = tested on: HL-60(TB); test: NCI 60 five-dose screen HL-60(TB); assay type: cell-based; settings: Homo sapiens, five-dose
[6] = tested on: IGROV1; test: NCI 60 five-dose screen IGROV1; assay type: cell-based; settings: Homo sapiens, IGROV-1, five-dose
[7] = tested on: TK-10; test: NCI 60 five-dose screen TK-10; assay type: cell-based; settings: Homo sapiens, five-dose
[8] = tested on: A549/ATCC; test: NCI 60 five-dose screen A549/ATCC; assay type: cell-based; settings: Homo sapiens, five-dose
[9] = tested on: OVCAR-4; test: NCI 60 five-dose screen OVCAR-4; assay type: cell-based; settings: Homo sapiens, five-dose
[10] = tested on: SF-539; test: NCI 60 five-dose screen SF-539; assay type: cell-based; settings: Homo sapiens, five-dose
[11] = tested on: OVCAR-3; test: NCI 60 five-dose screen OVCAR-3; assay type: cell-based; settings: Homo sapiens, five-dose
[12] = tested on: SK-MEL-5; test: NCI 60 five-dose screen SK-MEL-5; assay type: cell-based; settings: Homo sapiens, five-dose
[13] = tested on: HOP-62; test: NCI 60 five-dose screen HOP-62; assay type: cell-based; settings: Homo sapiens, five-dose
[14] = tested on: BT-549; test: NCI 60 five-dose screen BT-549; assay type: cell-based; settings: Homo sapiens, five-dose
[15] = tested on: MDA-MB-468; test: NCI 60 five-dose screen MDA-MB-468; assay type: cell-based; settings: Homo sapiens, five-dose
[16] = tested on: SR; test: NCI 60 five-dose screen SR; assay type: cell-based, human; settings: five-dose
[17] = tested on: T-47D; test: NCI 60 five-dose screen T-47D; assay type: cell-based; settings: Homo sapiens, T47D, five-dose
[18] = tested on: MCF7; test: NCI 60 five-dose screen MCF7; assay type: cell-based; settings: Homo sapiens, five-dose
[19] = tested on: U251; test: NCI 60 five-dose screen U251; assay type: cell-based; settings: Homo sapiens, U-251, five-dose
[20] = tested on: A498; test: NCI 60 five-dose screen A498; assay type: cell-based; settings: Homo sapiens, five-dose
[21] = tested on: M14; test: NCI 60 five-dose screen M14; assay type: cell-based; settings: Homo sapiens, five-dose
[22] = tested on: SK-MEL-28; test: NCI 60 five-dose screen SK-MEL-28; assay type: cell-based; settings: Homo sapiens, five-dose
[23] = tested on: RPMI-8226; test: NCI 60 five-dose screen RPMI-8226; assay type: cell-based; settings: Homo sapiens, five-dose
[24] = tested on: NCI-H226; test: NCI 60 five-dose screen NCI-H226; assay type: cell-based; settings: Homo sapiens, five-dose
[25] = tested on: ACHN; test: NCI 60 five-dose screen ACHN; assay type: cell-based; settings: Homo sapiens, five-dose
[26] = tested on: MALME-3M; test: NCI 60 five-dose screen MALME-3M; assay type: cell-based; settings: Homo sapiens, MALME-3M, five-dose
[27] = tested on: NCI-H23; test: NCI 60 five-dose screen NCI-H23; assay type: cell-based; settings: Homo sapiens, five-dose
[28] = tested on: HCC-2998; test: NCI 60 five-dose screen HCC-2998; assay type: cell-based; settings: Homo sapiens, five-dose
[29] = read-out: LC50 (the source's name)
[30] = read-out: LC50 (the source's name) (converted)

FC(F)(F)c1cc2c(Cl)ncnc2n1CCN1CCOCC1 [NUCC-0226680]
GI50 [1]: 16.6 µM
IC50 [1]: 100 µM
IC (TGI) [1]: 58.9 µM
CC50 [1, 29]: ≥ 100 µM
GI50 [2]: 5.75 µM
IC50 [2]: 10.7 µM
IC (TGI) [2]: 28.8 µM
CC50 [2, 29]: ≥ 100 µM
GI50 [3]: 27.5 µM
IC50 [3]: 56.2 µM
IC (TGI) [3]: 100 µM
CC50 [3, 30]: ≥ 100 µM
GI50 [4]: 37.2 µM
IC50 [4]: 61.7 µM
IC (TGI) [4]: 100 µM
CC50 [4, 30]: ≥ 100 µM
GI50 [5]: 2.09 µM
IC50 [5]: 3.89 µM
IC (TGI) [5]: 6.03 µM
CC50 [5, 30]: 66.1 µM
GI50 [6]: 2.51 µM
IC50 [6]: 3.98 µM
IC (TGI) [6]: 7.59 µM
CC50 [6, 30]: 35.5 µM
GI50 [7]: 100 µM
IC50 [7]: 100 µM
IC (TGI) [7]: 100 µM
CC50 [7, 30]: ≥ 100 µM
GI50 [8]: 100 µM
IC50 [8]: 100 µM
IC (TGI) [8]: 100 µM
CC50 [8, 30]: ≥ 100 µM
GI50 [9]: 33.1 µM
IC50 [9]: 100 µM
IC (TGI) [9]: 100 µM
CC50 [9, 30]: ≥ 100 µM
GI50 [10]: 18.2 µM
IC50 [10]: 33.9 µM
IC (TGI) [10]: 42.7 µM
CC50 [10, 30]: 97.7 µM
GI50 [11]: 19.5 µM
IC50 [11]: 37.2 µM
IC (TGI) [11]: 43.7 µM
CC50 [11, 30]: 97.7 µM
GI50 [12]: 12.9 µM
IC50 [12]: 22.9 µM
IC (TGI) [12]: 29.5 µM
CC50 [12, 30]: 67.6 µM
GI50 [13]: 38.9 µM
IC50 [13]: 100 µM
IC (TGI) [13]: 100 µM
CC50 [13, 30]: ≥ 100 µM
GI50 [14]: 13.5 µM
IC50 [14]: 28.2 µM
IC (TGI) [14]: 28.2 µM
CC50 [14, 30]: 58.9 µM
GI50 [15]: 2.75 µM
IC50 [15]: 15.8 µM
IC (TGI) [15]: 10.5 µM
CC50 [15, 30]: 42.7 µM
GI50 ([16]; Homo sapiens): 2.88 µM
IC50 ([16]; Homo sapiens): 4.37 µM
CC50 ([16]; Homo sapiens, read-out: LC50 (the source's name)): ≥ 100 µM
TGI [16]: 4.9 −log[M]
GI50 [17]: 38.9 µM
IC50 [17]: 100 µM
IC (TGI) [17]: 100 µM
CC50 [17, 29]: ≥ 100 µM
GI50 [18]: 25.1 µM
IC50 [18]: 35.5 µM
IC (TGI) [18]: 100 µM
CC50 [18, 30]: ≥ 100 µM
GI50 [19]: 14.8 µM
IC50 [19]: 24 µM
IC (TGI) [19]: 38.9 µM
CC50 [19, 30]: ≥ 100 µM
GI50 [20]: 100 µM
IC50 [20]: 100 µM
IC (TGI) [20]: 100 µM
CC50 [20, 30]: ≥ 100 µM
GI50 [21]: 11.5 µM
IC50 [21]: 20.4 µM
IC (TGI) [21]: 36.3 µM
CC50 [21, 30]: ≥ 100 µM
GI50 [22]: 13.5 µM
IC50 [22]: 25.1 µM
IC (TGI) [22]: 33.1 µM
CC50 [22, 30]: 79.4 µM
GI50 [23]: 31.6 µM
IC50 [23]: 46.8 µM
IC (TGI) [23]: 100 µM
CC50 [23, 29]: ≥ 100 µM
GI50 [24]: 100 µM
IC50 [24]: 100 µM
IC (TGI) [24]: 100 µM
CC50 [24, 30]: ≥ 100 µM
GI50 [25]: 7.59 µM
IC50 [25]: 15.5 µM
IC (TGI) [25]: 100 µM
CC50 [25, 30]: ≥ 100 µM
GI50 [26]: 21.9 µM
IC50 [26]: 87.1 µM
IC (TGI) [26]: 67.6 µM
CC50 [26, 30]: ≥ 100 µM
GI50 [27]: 17.8 µM
IC50 [27]: 37.2 µM
IC (TGI) [27]: 74.1 µM
CC50 [27, 30]: ≥ 100 µM
GI50 [28]: 2.24 µM
IC50 [28]: 4.07 µM
IC (TGI) [28]: 5.13 µM
CC50 [28, 30]: 15.8 µM
